Results taken from ChEMBL document CHEMBL1201862, “PubChem BioAssay data set” (2004).
One block for each compound: values may come before it. The source made the active and inactive calls.

Columns and labels:
[1] = molecular target: Epstein-Barr nuclear antigen 1 (Epstein-Barr virus (strain B95-8) (HHV-4) (Human herpesvirus 4), UniProt P03211); assay: inhibition of EBV nuclear antigen 1 DNA binding – biochemical, fluorescence polarization, 1536-well, dose response (AID 2381); set-up: species or system human gammaherpesvirus 4;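 note: fluorescence polarization of a Cy5 DNA probe bound by EBNA-1 protein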
Sequence of Epstein-Barr nuclear antigen 1 (P03211 whole entry): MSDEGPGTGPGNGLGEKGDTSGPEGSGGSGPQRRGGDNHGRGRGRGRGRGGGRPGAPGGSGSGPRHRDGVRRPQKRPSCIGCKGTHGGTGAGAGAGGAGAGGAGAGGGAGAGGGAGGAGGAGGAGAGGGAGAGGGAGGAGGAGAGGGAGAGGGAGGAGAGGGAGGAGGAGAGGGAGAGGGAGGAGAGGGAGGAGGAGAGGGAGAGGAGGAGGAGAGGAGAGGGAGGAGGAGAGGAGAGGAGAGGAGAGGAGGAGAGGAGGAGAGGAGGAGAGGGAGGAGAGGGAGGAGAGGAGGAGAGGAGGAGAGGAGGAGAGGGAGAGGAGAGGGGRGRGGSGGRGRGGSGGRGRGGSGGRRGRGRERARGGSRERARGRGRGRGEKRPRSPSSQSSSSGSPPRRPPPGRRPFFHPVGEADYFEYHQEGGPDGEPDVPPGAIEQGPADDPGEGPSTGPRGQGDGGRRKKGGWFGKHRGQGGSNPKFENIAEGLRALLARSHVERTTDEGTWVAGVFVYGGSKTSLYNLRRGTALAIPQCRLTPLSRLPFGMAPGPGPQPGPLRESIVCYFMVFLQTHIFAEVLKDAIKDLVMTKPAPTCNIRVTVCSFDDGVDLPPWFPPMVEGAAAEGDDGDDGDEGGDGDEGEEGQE

[2] = molecular target: Lytic switch protein BZLF1 (Epstein-Barr virus (strain B95-8) (HHV-4) (Human herpesvirus 4), UniProt P03206); assay: inhibition of BZLF1 ZTA DNA binding – biochemical, fluorescence polarization, Epstein-Barr virus, 1536-well, counter-screen for EBNA-1 inhibitor project, dose response (AID 2377); set-up: species or system human gammaherpesvirus 4;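 note: fluorescence polarization of Cy5-labelled ZRE DNA probe bound by purified Zta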
Sequence of Lytic switch protein BZLF1 (P03206 whole entry): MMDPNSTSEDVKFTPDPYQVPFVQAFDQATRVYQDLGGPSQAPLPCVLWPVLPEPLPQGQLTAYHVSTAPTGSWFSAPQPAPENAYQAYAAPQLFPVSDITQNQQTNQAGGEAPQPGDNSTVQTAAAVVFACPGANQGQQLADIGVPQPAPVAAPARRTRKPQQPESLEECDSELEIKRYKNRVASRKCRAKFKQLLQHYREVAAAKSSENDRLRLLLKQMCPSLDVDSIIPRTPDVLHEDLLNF

[3] = Luminescence Cell-Based Dose Confirmation HTS to Identify Inhibitors of Polyadenylation.; assay type: functional
Vero = assay: mammalian cell viability reduction – secondary assay, cytotoxicity control for West Nile virus antiviral project, dose response (AID 1650); assay type: functional; details: Chlorocebus sabaeus
[4] = reduced cellular PGC1a acetyl-lysine signal – cell-based, cherry-picked samples, dose response (AID 720514); assay type: functional;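 note: potency may reflect raised or lowered acetylation signal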
[5] = molecular target: T1, Aryl hydrocarbon receptor (Homo sapiens, UniProt P35869); assay: Luminescence-based cell-based high throughput dose response assay for activators of the Aryl Hydrocarbon Receptor (AHR). [Related pubchem assays: 2796 (Primary screen (AHR activators in singlicate)), 2845 (Confirmation screen (AHR activators in triplicate)), 434939 (Counterscreen (PXR activators in triplicate)), 2804 (Summary (AHR activators))]; assay type: ADME
T1 sequence (P35869 whole entry): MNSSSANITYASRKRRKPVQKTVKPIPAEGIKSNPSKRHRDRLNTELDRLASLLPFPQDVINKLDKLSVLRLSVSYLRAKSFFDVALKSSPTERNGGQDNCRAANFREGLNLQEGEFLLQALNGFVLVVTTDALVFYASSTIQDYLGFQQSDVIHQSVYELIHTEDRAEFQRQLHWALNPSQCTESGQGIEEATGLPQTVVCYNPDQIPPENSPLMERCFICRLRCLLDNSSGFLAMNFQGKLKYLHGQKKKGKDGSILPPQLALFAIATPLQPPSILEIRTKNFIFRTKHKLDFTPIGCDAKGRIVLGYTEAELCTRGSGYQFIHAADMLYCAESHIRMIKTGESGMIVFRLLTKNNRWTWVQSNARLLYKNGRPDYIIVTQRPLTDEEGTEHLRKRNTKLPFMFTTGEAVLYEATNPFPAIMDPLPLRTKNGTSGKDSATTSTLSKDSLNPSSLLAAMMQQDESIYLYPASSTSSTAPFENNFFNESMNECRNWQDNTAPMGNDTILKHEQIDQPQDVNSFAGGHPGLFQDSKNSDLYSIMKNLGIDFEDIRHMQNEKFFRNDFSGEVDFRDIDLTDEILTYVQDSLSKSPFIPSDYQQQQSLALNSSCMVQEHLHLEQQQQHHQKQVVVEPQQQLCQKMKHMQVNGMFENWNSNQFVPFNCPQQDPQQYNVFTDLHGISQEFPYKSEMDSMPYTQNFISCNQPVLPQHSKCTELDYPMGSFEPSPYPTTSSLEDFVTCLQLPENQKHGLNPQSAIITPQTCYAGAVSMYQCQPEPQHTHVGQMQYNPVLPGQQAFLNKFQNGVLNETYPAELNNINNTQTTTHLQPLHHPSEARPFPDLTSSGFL

[6] = molecular target: Voltage-gated inwardly rectifying potassium channel KCNH2 (Homo sapiens, UniProt Q12809); assay: concentration-dependent hERG rescue from blockers – cell-based, thallium flux, dose response (AID 2121); assay type: ADME
Sequence of Voltage-gated inwardly rectifying potassium channel KCNH2 (Q12809 whole entry): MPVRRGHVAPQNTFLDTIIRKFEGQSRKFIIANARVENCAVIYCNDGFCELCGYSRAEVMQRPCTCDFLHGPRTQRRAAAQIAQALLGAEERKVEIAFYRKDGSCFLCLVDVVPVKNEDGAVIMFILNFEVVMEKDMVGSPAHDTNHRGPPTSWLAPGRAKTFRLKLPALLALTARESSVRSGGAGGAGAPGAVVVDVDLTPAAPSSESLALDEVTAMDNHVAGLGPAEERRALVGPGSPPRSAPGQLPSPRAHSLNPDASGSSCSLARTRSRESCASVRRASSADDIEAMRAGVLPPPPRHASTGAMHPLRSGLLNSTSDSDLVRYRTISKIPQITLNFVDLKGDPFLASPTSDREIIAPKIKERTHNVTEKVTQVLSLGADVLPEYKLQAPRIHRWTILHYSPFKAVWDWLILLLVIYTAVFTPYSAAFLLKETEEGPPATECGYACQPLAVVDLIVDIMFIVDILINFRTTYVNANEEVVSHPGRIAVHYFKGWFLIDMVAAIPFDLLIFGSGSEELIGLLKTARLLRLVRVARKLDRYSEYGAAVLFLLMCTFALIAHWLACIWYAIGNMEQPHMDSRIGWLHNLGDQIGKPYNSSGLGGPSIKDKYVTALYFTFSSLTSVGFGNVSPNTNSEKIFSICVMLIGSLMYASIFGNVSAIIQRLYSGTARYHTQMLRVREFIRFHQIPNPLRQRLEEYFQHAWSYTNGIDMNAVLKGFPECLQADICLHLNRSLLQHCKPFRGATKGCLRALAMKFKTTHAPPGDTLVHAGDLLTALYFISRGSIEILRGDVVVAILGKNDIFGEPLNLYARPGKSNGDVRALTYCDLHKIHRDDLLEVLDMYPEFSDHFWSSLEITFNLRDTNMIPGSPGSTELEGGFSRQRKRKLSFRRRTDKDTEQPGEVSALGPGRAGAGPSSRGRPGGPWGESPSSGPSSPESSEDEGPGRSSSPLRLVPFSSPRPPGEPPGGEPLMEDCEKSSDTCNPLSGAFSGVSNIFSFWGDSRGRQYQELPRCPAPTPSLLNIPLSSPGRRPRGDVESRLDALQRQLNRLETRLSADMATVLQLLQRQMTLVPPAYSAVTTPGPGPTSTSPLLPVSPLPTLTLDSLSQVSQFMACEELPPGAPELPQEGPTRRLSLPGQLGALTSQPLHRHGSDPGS

Cytochrome P450 2C19 = Cytochrome P450 2C19 (Homo sapiens, UniProt P33261); assay: qHTS Assay for Inhibitors and Substrates of Cytochrome P450 2C19. [Related pubchem assays: 410 ]; assay type: ADME; details: read-out: Potency
Sequence of Cytochrome P450 2C19 (P33261 whole entry): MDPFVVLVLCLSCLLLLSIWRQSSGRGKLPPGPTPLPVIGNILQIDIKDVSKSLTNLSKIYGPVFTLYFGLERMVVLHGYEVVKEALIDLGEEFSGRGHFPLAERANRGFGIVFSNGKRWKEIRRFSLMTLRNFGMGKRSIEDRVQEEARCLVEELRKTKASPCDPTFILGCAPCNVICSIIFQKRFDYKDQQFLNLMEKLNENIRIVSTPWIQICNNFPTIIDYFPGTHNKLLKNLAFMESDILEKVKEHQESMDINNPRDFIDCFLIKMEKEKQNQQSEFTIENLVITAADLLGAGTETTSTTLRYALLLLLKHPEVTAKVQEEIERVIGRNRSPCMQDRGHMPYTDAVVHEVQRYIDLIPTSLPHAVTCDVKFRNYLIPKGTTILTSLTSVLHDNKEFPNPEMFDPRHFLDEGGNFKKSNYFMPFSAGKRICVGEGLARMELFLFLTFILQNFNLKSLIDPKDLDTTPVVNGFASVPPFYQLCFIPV

Cytochrome P450 2D6 = Cytochrome P450 2D6 (Homo sapiens, UniProt P10635); assay: qHTS Assay for Inhibitors and Substrates of Cytochrome P450 2D6. [Related pubchem assays: 410 ]; assay type: ADME; details: read-out: Potency
Sequence of Cytochrome P450 2D6 (P10635 whole entry): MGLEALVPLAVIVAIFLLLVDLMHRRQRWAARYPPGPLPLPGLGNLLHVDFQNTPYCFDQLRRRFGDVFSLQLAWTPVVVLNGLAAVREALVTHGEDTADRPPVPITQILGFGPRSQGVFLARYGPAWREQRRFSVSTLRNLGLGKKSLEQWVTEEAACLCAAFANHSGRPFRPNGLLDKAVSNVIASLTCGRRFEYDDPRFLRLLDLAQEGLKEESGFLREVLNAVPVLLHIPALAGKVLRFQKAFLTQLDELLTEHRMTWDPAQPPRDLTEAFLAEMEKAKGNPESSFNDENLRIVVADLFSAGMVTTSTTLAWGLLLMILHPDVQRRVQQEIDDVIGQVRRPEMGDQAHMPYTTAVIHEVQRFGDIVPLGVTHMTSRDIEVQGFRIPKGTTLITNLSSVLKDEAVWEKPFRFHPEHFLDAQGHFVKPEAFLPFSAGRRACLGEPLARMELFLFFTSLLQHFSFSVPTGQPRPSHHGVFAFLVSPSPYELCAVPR

Cytochrome P450 3A4 = Cytochrome P450 3A4 (Homo sapiens, UniProt P08684); details: Potency;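 note: confirmatory qHTS run detecting inhibitors and substrates of CYP3A4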
Sequence of Cytochrome P450 3A4 (P08684 whole entry): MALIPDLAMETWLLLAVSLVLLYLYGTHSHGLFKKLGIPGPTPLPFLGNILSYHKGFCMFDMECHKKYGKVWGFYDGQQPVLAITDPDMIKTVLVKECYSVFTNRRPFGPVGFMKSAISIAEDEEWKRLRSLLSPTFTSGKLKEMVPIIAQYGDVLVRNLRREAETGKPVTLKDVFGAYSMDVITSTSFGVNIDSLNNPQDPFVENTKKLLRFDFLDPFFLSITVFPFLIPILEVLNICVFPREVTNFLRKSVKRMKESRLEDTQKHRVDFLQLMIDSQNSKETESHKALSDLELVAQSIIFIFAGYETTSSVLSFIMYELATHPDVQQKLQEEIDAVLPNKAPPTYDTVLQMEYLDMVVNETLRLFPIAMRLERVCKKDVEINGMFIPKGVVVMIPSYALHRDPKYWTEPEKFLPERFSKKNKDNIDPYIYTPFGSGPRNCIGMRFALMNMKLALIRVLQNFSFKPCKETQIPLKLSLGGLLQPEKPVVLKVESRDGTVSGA

[7] = molecular target: Neuropeptide Y receptor type 1 (Homo sapiens, UniProt P25929); assay type: functional;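 note: HEK293 cells with a CNG channel challenged with NPY then isoproterenol; potency as antagonist that reverses NPY suppression of cAMP signal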
Sequence of Neuropeptide Y receptor type 1 (P25929 whole entry): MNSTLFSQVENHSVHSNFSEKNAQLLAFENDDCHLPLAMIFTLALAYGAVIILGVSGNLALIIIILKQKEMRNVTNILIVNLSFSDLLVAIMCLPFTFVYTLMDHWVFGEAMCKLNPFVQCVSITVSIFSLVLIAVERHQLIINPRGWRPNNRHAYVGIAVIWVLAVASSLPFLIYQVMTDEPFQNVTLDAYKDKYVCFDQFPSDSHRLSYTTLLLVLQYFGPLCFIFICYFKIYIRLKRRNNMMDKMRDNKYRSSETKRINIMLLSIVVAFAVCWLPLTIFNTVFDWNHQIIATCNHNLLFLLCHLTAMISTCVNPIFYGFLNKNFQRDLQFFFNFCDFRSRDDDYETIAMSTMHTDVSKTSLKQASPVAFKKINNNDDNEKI

[8] = molecular target: Neuropeptide Y receptor type 2 (Homo sapiens, UniProt P49146); assay type: functional, cell-based;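 note: HEK293 cells expressing the receptor and a CNG channel; stimulus was NPY near EC95 followed by isoproterenol to raise cAMP; antagonist potency measured as restoring cAMP signal that NPY suppresses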
Sequence of Neuropeptide Y receptor type 2 (P49146 whole entry): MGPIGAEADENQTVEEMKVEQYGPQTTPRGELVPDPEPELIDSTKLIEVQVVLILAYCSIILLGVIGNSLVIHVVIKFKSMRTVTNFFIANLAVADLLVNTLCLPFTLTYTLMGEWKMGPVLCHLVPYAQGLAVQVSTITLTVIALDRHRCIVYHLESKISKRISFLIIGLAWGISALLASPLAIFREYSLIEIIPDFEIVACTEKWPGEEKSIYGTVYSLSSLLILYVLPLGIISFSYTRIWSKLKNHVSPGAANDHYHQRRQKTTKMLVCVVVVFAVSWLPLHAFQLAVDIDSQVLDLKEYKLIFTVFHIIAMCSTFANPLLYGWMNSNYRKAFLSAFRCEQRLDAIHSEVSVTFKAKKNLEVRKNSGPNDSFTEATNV

[9] = molecular target: Sphingosine 1-phosphate receptor 2 (Homo sapiens, UniProt O95136); assay: Dose Response Cell Based Assay for Antagonists of the S1P2 Receptor. [Related pubchem assays: 856, 736 ]; assay type: functional
Sequence of Sphingosine 1-phosphate receptor 2 (O95136 whole entry): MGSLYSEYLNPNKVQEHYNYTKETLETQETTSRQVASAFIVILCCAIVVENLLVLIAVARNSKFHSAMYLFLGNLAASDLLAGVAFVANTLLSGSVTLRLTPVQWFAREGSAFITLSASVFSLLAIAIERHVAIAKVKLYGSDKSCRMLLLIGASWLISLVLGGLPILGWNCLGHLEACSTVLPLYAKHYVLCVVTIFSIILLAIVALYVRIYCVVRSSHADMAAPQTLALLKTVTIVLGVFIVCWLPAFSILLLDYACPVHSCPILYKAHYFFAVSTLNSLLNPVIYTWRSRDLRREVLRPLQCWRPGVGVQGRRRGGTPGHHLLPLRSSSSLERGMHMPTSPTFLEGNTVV

Protein skinhead-1 = molecular target: T2, Protein skinhead-1 (Caenorhabditis elegans, UniProt P34707); assay type: functional
T2 sequence (P34707 whole entry): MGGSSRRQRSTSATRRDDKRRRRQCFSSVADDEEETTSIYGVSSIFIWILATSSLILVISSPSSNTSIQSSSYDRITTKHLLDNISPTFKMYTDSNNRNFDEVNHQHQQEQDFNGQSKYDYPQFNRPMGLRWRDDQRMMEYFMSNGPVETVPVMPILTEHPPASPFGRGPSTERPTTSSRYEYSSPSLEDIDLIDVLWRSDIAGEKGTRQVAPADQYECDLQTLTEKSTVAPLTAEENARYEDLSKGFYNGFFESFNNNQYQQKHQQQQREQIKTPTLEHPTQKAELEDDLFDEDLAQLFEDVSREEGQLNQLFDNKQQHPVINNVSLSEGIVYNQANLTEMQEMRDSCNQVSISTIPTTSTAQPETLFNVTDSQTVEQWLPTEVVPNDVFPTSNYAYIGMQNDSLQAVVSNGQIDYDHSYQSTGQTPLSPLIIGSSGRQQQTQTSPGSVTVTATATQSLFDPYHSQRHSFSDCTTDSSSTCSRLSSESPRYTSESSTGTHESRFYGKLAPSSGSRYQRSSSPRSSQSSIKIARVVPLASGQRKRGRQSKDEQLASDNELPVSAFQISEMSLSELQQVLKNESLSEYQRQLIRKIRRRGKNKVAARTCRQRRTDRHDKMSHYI

SMILES: Cc1nc2ccc(C(=O)NCc3ccc4c(c3)OCO4)cc2s1
EC50 [3]: > 120 µM (not active)

SMILES: CCOC(=O)C(CC)(CC)C(=O)/C=C/c1ccc(Br)cc1
CC50 (Vero): 40.6 µM (active)
AC50 [4]: 20.6 µM (active)

SMILES: CCCn1c(SCC(N)=O)nc2c(c1=O)C1(CCCC1)Cc1ccccc1-2
EC50 [6]: 4.67 µM (active)

The next lines start with the values.

IC50 [1]: 13.7 µM (not active)
IC50 [2]: > 111 µM (not active)
SMILES: Nc1c(C(=O)Nc2ccc3c(c2)OCCO3)nnn1Cc1cccc(F)c1

EC50 [5]: 0.0222 µM (active)
SMILES: CSc1ncc(C(=O)Nc2ccc(Cl)cc2)c(C)n1

AC50 (Cytochrome P450 2C19): 3.98 µM (inconclusive)
AC50 (Cytochrome P450 2D6): 7.94 µM (inconclusive)
AC50 (Cytochrome P450 3A4): 3.98 µM (inconclusive)
SMILES: CCCCCCC#CC1C=CC(OC(C)=O)C(COC(C)=O)O1 (centres undefined)

IC50 [7]: 5.77 µM (active)
IC50 [8]: 17.3 µM (not active)
SMILES: CCc1cccc(CC)c1NC(=O)COC(=O)c1ccccc1-c1nc2ccccc2s1

IC50 [9]: 4.5 µM (active)
IC50 (Protein skinhead-1): > 100 µM (inactive)
SMILES: Cc1ccc(NC2=Nc3ccccc3N3C2=Nc2c(c(C)nn2-c2ccccc2)C3c2ccc(O)c(O)c2)cc1 (centres undefined)
